Results: patent publication US20230288338A1, “LUMINESCENT SUBSTRATE COMPOUND” (NATIONAL INSTITUTE OF ADVANCED INDUSTRIAL SCIENCE AND …, priority 2020, published 2023)

Tests used:
Assay type in all cases: biochemical
[1] = target: T1, human serum albumin (HSA) (Homo sapiens, UniProt P02768); experiment: Luminescence intensity measurement with human serum albumin; details: for HSA Luminescence intensity: total luminescence over 60 seconds, normalized against native coelenterazine in HSA set to 1.0, 10 µM substrate solution, 10 mM PB buffer pH 7.4
T1 construct: human serum-derived lyophilized powder, Fatty acid free, Globulin free, Sigma-Aldrich; purchased Sigma-Aldrich; host or cells: purified from human serum
T1 sequence (P02768 25-609): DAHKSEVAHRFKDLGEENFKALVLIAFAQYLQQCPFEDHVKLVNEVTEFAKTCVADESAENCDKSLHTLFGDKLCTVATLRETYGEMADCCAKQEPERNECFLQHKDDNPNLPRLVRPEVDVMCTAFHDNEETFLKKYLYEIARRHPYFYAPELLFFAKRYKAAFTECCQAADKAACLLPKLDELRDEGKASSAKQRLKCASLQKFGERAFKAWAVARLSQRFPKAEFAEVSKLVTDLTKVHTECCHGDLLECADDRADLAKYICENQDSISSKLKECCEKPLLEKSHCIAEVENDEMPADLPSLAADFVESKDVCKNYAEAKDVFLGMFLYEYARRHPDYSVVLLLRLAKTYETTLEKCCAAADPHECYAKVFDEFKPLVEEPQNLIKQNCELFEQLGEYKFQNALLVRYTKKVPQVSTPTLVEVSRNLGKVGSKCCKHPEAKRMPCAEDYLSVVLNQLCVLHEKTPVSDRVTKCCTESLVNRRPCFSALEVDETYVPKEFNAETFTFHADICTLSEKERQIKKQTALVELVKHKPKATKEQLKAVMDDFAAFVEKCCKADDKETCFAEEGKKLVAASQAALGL
Procedure: (§1) Human serum albumin (human serum-derived lyophilized powder, Fatty acid free, Globulin free, Sigma-Aldrich), other human protein species or bovine serum albumin (bovine serum-derived lyophilized powder, Sigma-Aldrich) was dissolved in PB Buffer (10 mM, pH 7.4) and used directly for luminescence measurement. As luminescent substrates, NCTZ, DeepBlueC™, MCLA™, control compounds 1 to 3, HuLumino12 and HuLumino22 were used. Each luminescent substrate was dissolved in methanol to give a 2 mM solution. This solution was diluted to 10 µM with 10 mM PB buffer (pH 7.4) for use as a substrate solution. To 90 µL of this solution, 10 µL of 10 mM PB buffer (pH 7.4) containing human serum albumin (HSA) or bovine serum albumin (BSA) was added to initiate a luminescent reaction. The luminescence intensity was measured with a Promega GloMax® 20/20 for 60 seconds, and the results were expressed as total luminescence (Total Luminescence/min) and compared (FIG. 1). […]

[2] = target: T2, bovine serum albumin (BSA) (Bos taurus, UniProt P02769); experiment: Luminescence intensity measurement with bovine serum albumin; details: total luminescence over 60 seconds, normalized against native coelenterazine in HSA set to 1.0; 10 µM substrate solution, 10 mM PB buffer pH 7.4
T2 construct: bovine serum-derived lyophilized powder, Sigma-Aldrich; purchased Sigma-Aldrich; host or cells: purified from bovine serum
T2 sequence (P02769 25-607): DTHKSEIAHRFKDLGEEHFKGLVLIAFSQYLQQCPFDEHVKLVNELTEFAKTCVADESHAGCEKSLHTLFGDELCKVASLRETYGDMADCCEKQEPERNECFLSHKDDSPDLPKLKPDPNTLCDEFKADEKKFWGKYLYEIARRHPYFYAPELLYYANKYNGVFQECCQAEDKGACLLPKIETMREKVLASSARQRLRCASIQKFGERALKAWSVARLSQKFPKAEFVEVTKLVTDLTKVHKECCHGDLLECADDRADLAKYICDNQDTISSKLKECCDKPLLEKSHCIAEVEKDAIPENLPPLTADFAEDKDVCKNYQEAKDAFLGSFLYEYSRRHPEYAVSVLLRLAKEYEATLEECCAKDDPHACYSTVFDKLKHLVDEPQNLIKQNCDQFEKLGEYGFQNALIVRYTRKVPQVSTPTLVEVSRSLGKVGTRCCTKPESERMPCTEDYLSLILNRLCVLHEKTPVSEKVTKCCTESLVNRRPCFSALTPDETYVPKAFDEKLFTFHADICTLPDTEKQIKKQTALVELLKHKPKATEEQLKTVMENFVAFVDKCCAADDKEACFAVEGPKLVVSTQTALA
Procedure: as §1

HSA = target: T3, HSA (Homo sapiens, UniProt P02768); experiment: Michaelis-Menten constant of luminescent substrate/HSA reaction
T3 construct: human serum-derived lyophilized powder, Fatty acid free, Globulin free, Sigma-Aldrich; purchased Sigma-Aldrich; host or cells: purified from human serum
T3 sequence (P02768 25-609): as the sequence (P02768 25-609) above

[3] = tested on: various human-derived proteins; experiment: Luminescence intensity upon reaction with various human-derived proteins or bovine serum albumin (FIG. 2)
Procedure: FIG. 2 is a graph showing the luminescence intensity of HuLumino12 (a compound according to an example of the present invention) upon reaction with various human-derived proteins or bovine serum albumin.
as §1

[4] = target: T1, human serum albumin (HSA); experiment: Signal to noise ratio of luminescence in the presence of HSA (FIG. 3); details: luminescent reaction with HSA; for S/N ratio: FIG. 3
Excerpt: FIG. 3 is a graph showing the luminescence property (signal to noise ratio, S/N ratio) of compounds according to examples of the present invention and comparative examples in the presence of human serum albumin (HSA).

[5] = target: T1, human serum albumin (HSA); experiment: Luminescence duration in the presence of HSA (FIG. 4); details: luminescent reaction with HSA
Excerpt: FIG. 4 is a graph showing the luminescence property (luminescence duration) of HuLumino12 (a compound according to an example of the present invention) in the presence of human serum albumin (HSA).

[6] = target: T1, human serum albumin (HSA); experiment: HSA concentration-dependent luminescence intensity, detection limit (FIG. 5)
Excerpt: FIG. 5 is a graph showing the luminescence intensity of HuLumino12 (a compound according to an example of the present invention), which is dependent on the concentration of human serum albumin (HSA).

[7] = target: T1, human serum albumin (HSA); experiment: Luminescence spectrum measurement in the presence of HSA (FIG. 6)
Procedure: FIG. 6 is a graph showing the luminescence wavelength (luminescence spectrum measurement result) of HuLumino12 (a compound according to an example of the present invention) in the presence of human serum albumin (HSA).
The luminescence spectrum was measured with a spectrometer. The peak luminescence wavelength was obtained by being normalized against the peak luminescence intensity which was set to 1.0.

HSA Luminescence intensity [1] | BSA Luminescence intensity [2] | SMILES | also measured
13.7 | 11.2 | O=c1c(Cc2ccccc2)nc2c[nH]c(-c3ccc(O)cc3)cn1-2 [Control compound 2, reference compound] | –
554 | 34.4 | COc1ccc(-c2cn3c(=O)c(Cc4ccccc4)nc-3c[nH]2)cc1 [Control compound 3, reference compound] | –
912 | 11.9 | COCCCOc1ccc(-c2cn3c(=O)c(Cc4ccccc4)nc-3c[nH]2)cc1 [HuLumino12, 2-benzyl-6-(4-(3-methoxypropoxy)phenyl)imidazo[1,2-a]pyrazin-3(7H)-one] | luminescence intensity higher than NCTZ/HSA ([1]; with HSA, relative to NCTZ/HSA): 912 fold; Michaelis-Menten constant (HSA): 4.2 µM; specificity of luminescent reaction among various human protein species [3]: specific luminescent reaction when recognized by human serum albumin (HSA); S/N ratio [4]: 37; luminescence duration [5]: 3 h; detection limit of HSA detection [6]: 7.4 µg/mL; peak luminescence wavelength [7]: 427 nm
154 | 19.2 | COc1ccc(/C=C/c2cn3c(=O)c(Cc4ccccc4)nc-3c[nH]2)cc1 [HuLumino30, (E)-2-benzyl-6-(4-methoxystyryl)imidazo[1,2-a]pyrazin-3(7H)-one] | –

More lines, now with the values behind:

SMILES | HSA Luminescence intensity [1] | BSA Luminescence intensity [2] | also measured
COCCCOc1ccc(-c2cn3c(=O)c(Cc4ccccc4)nc-3c(Cc3ccccc3)[nH]2)cc1 [BBlue2.3, reference compound] | 51.5 | 34.3 | –
O=c1c(Cc2ccccc2)nc2c(Cc3ccccc3)[nH]c(-c3ccccc3)cn1-2 [DeepBlueC™, reference compound] | 22.1 | 7.6 | –
COCCCOc1ccc(-c2cn3c(=O)c(C)nc-3c[nH]2)cc1 [HuLumino22, 6-(4-(3-methoxypropoxy)phenyl)-2-methylimidazo[1,2-a]pyrazin-3(7H)-one] | 14.2 | 3.1 | –
O=c1c(Cc2ccccc2)nc2c[nH]c(/C=C/c3ccc(-c4ccccc4)cc3)cn1-2 [HuLumino44, (E)-6-(2-([1,1′-biphenyl]-4-yl)vinyl)-2-benzylimidazo[1,2-a]pyrazin-3(7H)-one] | 206 | 5.2 | S/N ratio relative to that of HuLumino12 [4]: approximately 4 fold; S/N ratio [4]: 150
O=c1c(Cc2ccccc2)nc2c[nH]c(/C=C/c3ccccc3)cn1-2 [HuLumino45, (E)-2-benzyl-6-styrylimidazo[1,2-a]pyrazin-3(7H)-one] | 61.3 | 9.8 | –
COc1ccc(-c2cn3c(=O)c(C)nc-3c[nH]2)cc1 [MCLA™, reference compound] | 14.1 | 1.8 | –
O=c1c(Cc2ccc(O)cc2)nc2c(Cc3ccccc3)[nH]c(-c3ccc(O)cc3)cn1-2 [NCTZ, reference compound] | 1.0 | 3.9 | Michaelis-Menten constant (HSA): 25.3 µM
